Source: patent US12098134B2, “Benzo-heterocyclic compound and composition for preventing or treating cancer disease, containing same as active ingredient” (INDUSTRY ACADEMIC COOPERATION FOUNDATION KEIMYUNG UNIVERSITY, priority 2018, dated 2024)

Columns and labels:
[1] = test system: breast cancer cell line MDA-MB-231; test: Anti-proliferative activity in breast cancer cell line MDA-MB-231; type: cell-based; settings: MDA-MB-231 cell line
Text: Anti-proliferative activity against breast cancer cell line MDA-MB-231 was investigated using the compounds synthesized through the above Examples 1 to 4.

[2] = test system: human neuroblastoma cell line SH-SY5Y; test: Anti-proliferative activity in SH-SY5Y cell line; type: cell-based; settings: half maximal growth inhibition concentration, after 72 hours
Description: Anti-proliferative activity against human neuroblastoma cell line SH-SY5Y, an in vitro model of human malignant metastatic neuroblastoma, was investigated using the compounds synthesized through the above Examples 1 to 4.
SH-SY5Y cells were cultured in DMEM (Dulbecco's Modified Eagle's Media) with L-glutamine supplemented with […] of streptomycin, 100 units/mL of penicillin and 10% fetal bovine serum (FBS). The cells were grown to confluence in a humidified atmosphere (37° C., 5% CO2).

SH-SY5Y cells = test: Soft agar colony formation assay; type: cell-based, human; settings: cultured 1-2 weeks
Description: Anchorage-independent cell growth is a characteristic of cell carcinogenesis and indicates the ability of transformed cells to grow independently of a solid surface. The soft agar colony formation assay is a widely used method to measure the capability of anchorage-independent cell growth in vitro. Thus, the suppressive effect of Compound 9b on Anchorage-independent cell growth by soft agar colony formation assay.
SH-SY5Y cells were seeded in a 6-well plate with 1.2% agar (4×10^5 cells/well) and Compound 9b was added at concentrations of 1 μM, 3 μM and 5 μM and cultured for 1-2 weeks. DMSO (0.5%) was used as a negative control. After incubation, colonies were stained using by 0.05% crystal violet for 10 minutes. The colonies were washed by 3rd distilled water and captured.

[3] = test system: cervical cancer cell line HeLa; test: Anti-proliferative activity in HeLa cell line; type: cell-based; settings: Homo sapiens
[4] = test system: non-small cell lung cancer cell line H1975; test: Anti-proliferative activity in H1975 cell line; type: cell-based; settings: Homo sapiens, NCI-H1975
[5] = test system: lung cancer cell line A549; test: Anti-proliferative activity in A549 cell line; type: cell-based; settings: Homo sapiens

| Structure (SMILES) | GI50 ([1]; Homo sapiens) [µM] | further results |
| --- | --- | --- |
| Cn1c(-c2ccc(C(=O)NO)cc2)nc2ccccc21 [Compound 6a, N-hydroxy-4-(1-methyl-1H-benzo[d]imidazol-2-yl)benzamide] | 40.3 |  |
| Cn1c(-c2cccc(C(=O)NO)c2)nc2ccccc21 [Compound 14a, N-hydroxy-3-(1-methyl-1H-benzo[d]imidazol-2-yl)benzamide] | > 100 |  |
| O=C(CCCCCCC(=O)Nc1ccccc1)NO [SAHA, reference compound] |  | GI50 [1]: 3.16 µM; GI50 [2]: 2.9 µM |
| CCCCn1c(-c2cccc(C(=O)NO)c2)nc2ccccc21 [Compound 14d, 3-(1-Butyl-1H-benzo[d]imidazol-2-yl)-N-hydroxybenzamide] | 60.8 |  |
| CCCCn1c(-c2ccc(C(=O)NO)cc2)nc2ccccc21 [Compound 6d, 4-(1-butyl-1H-benzo[d]imidazol-2-yl)-N-hydroxybenzamide] | 35.5 |  |
| O=C(NO)c1cccc(-c2nc3ccccc3[nH]2)c1 [Compound 13, 3-(1H-benzo[d]amidazol-2-yl)-N-hydroxybenzamide] |  | GI50 [1]: > 100 µM; GI50 [2]: > 100 µM |
| CCn1c(-c2cccc(C(=O)NO)c2)nc2ccccc21 [Compound 14b, 3-(1-Ethyl-1H-benzo[d]imidazol-2-yl)-N-hydroxybenzamide] | > 100 |  |
| CCCn1c(-c2cccc(C(=O)NO)c2)nc2ccccc21 [Compound 14c, N-hydroxy-3-(1-propyl-1H-benzo[d]imidazol-2-yl)benzamide] | 62.1 |  |
| CCCn1c(-c2ccc(C(=O)NO)cc2)nc2ccccc21 [Compound 6c, N-hydroxy-4-(1-propyl-1H-benzo[d]imidazol-2-yl)benzamide] | 44.6 |  |
| O=C(NO)c1cccc(-c2nc3ccccc3o2)c1 [Compound 17a, 3-(Benzo[d]oxazol-2-yl)-N-hydroxybenzamide] | 47.9 |  |

More lines, in order of falling GI50 ([1]; Homo sapiens), values ahead:

| GI50 ([1]; Homo sapiens) [µM] | Structure (SMILES) | further results |
| --- | --- | --- |
| 23.1 | O=C(NO)c1cccc(-c2nc3ccccc3s2)c1 [Compound 17b, 3-(benzo[d]thiazol-2-yl)-N-hydroxybenzamide] |  |
| 15.6 | O=C(NO)c1ccc(-c2nc3ccccc3[nH]2)cc1 [Compound 5, 4-(1H-benzo[d]imidazol-2-yl)-N-hydroxybenzamide] |  |
| 15.6 | CCn1c(-c2ccc(C(=O)NO)cc2)nc2ccccc21 [Compound 6b, 4-(1-ethyl-1H-benzo[d]imidazol-2-yl)-N-hydroxybenzamide] |  |
| 8.31 | O=C(NO)c1ccc(-c2nc3ccccc3o2)cc1 [Compound 9a, 4-(benzo[d]oxazol-2-yl)-N-hydroxybenzamide] |  |
| 3.86 | O=C(NO)c1ccc(-c2nc3ccccc3s2)cc1 [Compound 9b, 4-(benzo[d]thiazol-2-yl)-N-hydroxybenzamide] | ability of SH-SY5Y cells to form colonies (SH-SY5Y cells; 1 μM, 3 μM and 5 μM): decreased in a dose-dependent manner; anchorage-independent cell growth of SH-SY5Y neuroblastoma (SH-SY5Y cells; 3 μM): almost completely inhibited; GI50 [3]: 13.5 µM; GI50 [4]: 3.71 µM; GI50 [5]: 15.6 µM |
